Legend:
S1P1 expression on PBMCs = experiment: S1P1 cell surface expression on PBMCs, FACS; assay type: cell-based, human
Protocol: Among the S1P receptors, S1P1 is the most widespread receptor in the immune system and is expressed by several cell populations. […] Since AD2900 functions as an antagonist on S1P1, we next checked whether AD2900 affects S1P1 expression on PBMCs; FTY720 and SEW2817 were used as positive controls. The percentage of cells expressing S1P1 on their cell surface was detected by FACS analysis and was calculated as % of expression in non-treated cells. Low doses of AD2900 led to a decreased number of S1P1-expressing PBMCs after a 30-min treatment (Figure 3A and Supplementary Figure 2C). […] The highest effect was obtained at 100 nM with a mean of 51% ± 9% expression as compared to untreated control PBMCs.
Figure 3 AD2900 downregulates the percentage of S1P1- and CCR7-expressing cells in PBMCs (A, B) The percentages of S1P1-positive PBMCs after the treatment with different concentrations of AD2900, FTY720, or SEW2871 and at different time points were examined by FACS analysis. S1P1 expression was tested in PBMCs after a 30-min treatment with AD2900 at different concentrations (A) or after a 30-min or 60-min treatment with 100 nM AD2900, FTY720, or SEW2871 (B). (C) The percentage of CCR7-positive PBMCs was tested by FACS analysis after a 30-min treatment with 100 nM AD2900, FTY720, or SEW2871. All the significances are compared to untreated PBMCs. Results summarize the results of at least four independent experiments. Results of Student’s t-test: *(P < 0.05, two-tailed test), ** (P < 0.01, two-tailed test), *** (P < 0.001, two-tailed test), **** (P < 0.0001, two-tailed test).
Human PBMCs: For the apoptosis test, anti-AnnexinV-FITC (BD Biosciences, CA, USA) was used. To analyze S1P1 surface expression on AD2900-treated PBMCs, the following were used: anti-S1P1 (Alomone labs, Israel), anti-EDG-1 (Abcam, UK), Dylight405-conjugated AffiniPure Goat Anti-Rabbit lgG (H + L), and APC-conjugated AffiniPure F(ab')2 Goat Anti-Rabbit lgG(H + L) (Jackson ImmonoResearch, USA). For CCR7 expression, we used anti-CCR7-APC (Biolegend, CA, USA).

human PBMCs = experiment: 5-day MLR with Et-18-OCH3, BAPTA-AM or 8-bromo-cAMP preincubation, analogues present throughout; assay type: cell-based; details: 2 μM
Protocol: To determine whether the effect of inhibition of AD2900 on PBMC proliferation is dependent on the same signal transduction pathways, we next examined the capacities of the intracellular Ca^2+ chelator-BAPTA-AM, phosphatidylinositol-specific PLC inhibitor-Et-18-OCH3, and cell-permeate exogenous cAMP-8-bromo-cAMP to alter the suppressive effect of AD2900 and FTY720 on PBMC proliferation. S1P served as a positive control (Figures 2A, 2B, and 2C, respectively). PBMCs were pre-incubated for 1 hour with the inhibitors before the addition of 2 μM AD2900, FTY720, or S1P in the MLR experiment. The inhibitors and the analogues were present in the culture throughout the allogeneic activation. AD2900 suppression of PBMC proliferation was reduced from 59% ± 3% to 32% ± 7% by the exogenous cAMP. BAPTA-AM also partially reversed AD2900 suppression of PBMC proliferation from 59% ± 3% to 32% ± 3%, yet Et-18-OCH3 had no effect (Figure 2A).
Figure 2 Effect of AD2900 on proliferation is dependent on cAMP reduction and calcium signal transduction The effect of Edelfosine (Et-18-OCH3) (Et), BAPTA-AM (BAPTA), or 8-bromo-cAMP (8-b-CAMP) on the inhibition of PBMC proliferation was tested in a 5-day MLR experiment. The cells were incubated with 1 μM Edelfosine, 0.2 μM BAPTA-AM, or 5 μM 8-bromo-cAMP for 1 hour before the addition of sphingolipid analogues, 2 μM AD2900 (AD) (A), FTY720 (FTY) (B), or S1P (C). Significances are compared to AD2900/FTY/S1P without preincubation, respectively. Graphs summarize the results of at least four independent experiments. Results of Student’s t-test: *(P < 0.05, two-tailed test), ** (P < 0.01, two-tailed test).
Human PBLs were collected from human whole blood collected from healthy donors. Subsequently, the cells were centrifuged on a Ficoll-Paque gradient (Fresenius Kabi Norge AS, Oslo, Norway) and were isolated from the interphase layer. For the human MLR experiment, PBMCs from one healthy donor were pretreated for 1 day with AD2900, AD2730, AD2750, YZ297, YZ158, FTY720, or SEW2871. After 24 h, cells were washed and plated at a concentration of 5 × 10^4 cells/well in round bottom 96-well plates containing RPMI-1640 medium Supplemented with 10% human AB serum, 1% penicillin/streptomycin, and 1% l-glutamine (Beit Haemek, Israel). PBMCs from a second donor were irradiated at 3000 γ dosage and added to the plate in a 1:1 ratio with the first donor cells. The cells were cultured for 5 days. For the thymidine incorporation assay, after 4 days of co-culture, cells were pulsed with ^3H-thymidine at 1 μCi (0.037MBq) per well (PerkinElmer, MA, USA) for 16 additional hours and then harvested onto glass-fiber filters. ^3H-thymidine incorporation was measured using Top Count. NXT (PerkinElmer, UK). In other experiments, the supernatant was harvested after 5 days of co-culture for IFN-γ and TNF-α cytokine ELISA measurements (eBioscience, CA, USA). The cells were then collected for assessing apoptosis by FACS in MACSQuant analyzer (Miltenyi Biotech, Germany). In another set of experiments, the PBMCs of two donors were mixed. Sphingolipid analogues were then added to the culture and sustained through the 5 days of the MLR experiment.

SMILES	effect on S1P1 cell surface expression, 30-min versus 60-min treatment (S1P1 expression on PBMCs; 100 nM)	S1P1 expression as compared to untreated control PBMCs (S1P1 expression on PBMCs; 100 nM, 30-min treatment, highest effect)	S1P1 expression level (S1P1 expression on PBMCs; 4000 nM, 30-min treatment)	concentrations that significantly and dose-dependently decreased S1P1 expression (S1P1 expression on PBMCs; 30-min treatment) [nM]	suppression of PBMC proliferation (human PBMCs; present throughout MLR, without preincubation)	suppression of PBMC proliferation with BAPTA-AM (human PBMCs; 1 hour preincubation with 0.2 μM BAPTA-AM)	effect of Et-18-OCH3 on suppression of PBMC proliferation (human PBMCs; 1 hour preincubation with 1 μM Et-18-OCH3)	suppression of PBMC proliferation with exogenous cAMP (human PBMCs; 1 hour preincubation with 5 μM 8-bromo-cAMP)	effect of Et-18-OCH3, BAPTA-AM and 8-bromo-cAMP on suppression of PBMC proliferation (human PBMCs; 1 hour preincubation with the inhibitors)
CCCCCCCCCCCCCCCCNC(CO)(CO)CO [AD2900]	transient and reversed shortly after a 60-min treatment	51% ± 9%	returned to that of untreated control	25 to 2000	59% ± 3%	32% ± 3%	no effect	32% ± 7%	–
CCCCCCCCc1ccc(CCC(N)(CO)CO)cc1 [FTY720, Fingolimod, reference compound]	smaller reduction of S1P1 cell surface expression, but its effect was not reversed after a 60-min treatment	–	–	–	–	–	–	–	not nullified by any of these interventions

Source: PMC5581131, “The novel sphingosine-1-phosphate receptors antagonist AD2900 affects lymphocyte activation and inhibits T-cell entry into the lymph nodes” (Oncotarget, 2017)
